The source of these data is patent US9328099B2, “Cyanomethylpyrazole carboxamides as janus kinase inhibitors” (Merck Sharp & Dohme Corp., priority 2011, dated 2016).

Read-outs that look alike come from different tables or passages of the source. Some results are limits rather than exact numbers.

Assay [1] concerns the target JAK1 (Homo sapiens (Human), UniProt P23458). In words: Jak Biochemical HTRF Assay, JAK1. The source says: (§1) Jak Biochemical HTRF Assay Protocol
(§2) Subsequent reagent additions employed an Agilent Bravo.
On the technique in general: In TR-FRET formats the signal depends on donor and acceptor labels being close together.

The target in assay [2] is JAK2 (Homo sapiens (Human), UniProt O60674). In words: Jak Biochemical HTRF Assay, JAK2. The conditions noted are these: HTRF biochemical assay, GST-tagged catalytic domain; top concentration tested […].
Sequence of JAK2 (O60674 849-1124): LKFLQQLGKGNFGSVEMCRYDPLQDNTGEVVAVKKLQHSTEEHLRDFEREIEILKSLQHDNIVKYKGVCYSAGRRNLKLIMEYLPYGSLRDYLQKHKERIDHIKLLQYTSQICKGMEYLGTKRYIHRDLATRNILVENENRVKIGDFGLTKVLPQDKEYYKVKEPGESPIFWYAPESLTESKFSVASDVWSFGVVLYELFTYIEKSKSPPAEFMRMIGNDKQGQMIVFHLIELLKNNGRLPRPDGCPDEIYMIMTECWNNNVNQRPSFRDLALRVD
From the text: as §1, §2

The mark [3] stands for this setting: HTRF biochemical assay, GST-tagged catalytic domain, top concentration tested […], read-out: JAK1 IC50.

Sequence of JAK1 (P23458 875-1153): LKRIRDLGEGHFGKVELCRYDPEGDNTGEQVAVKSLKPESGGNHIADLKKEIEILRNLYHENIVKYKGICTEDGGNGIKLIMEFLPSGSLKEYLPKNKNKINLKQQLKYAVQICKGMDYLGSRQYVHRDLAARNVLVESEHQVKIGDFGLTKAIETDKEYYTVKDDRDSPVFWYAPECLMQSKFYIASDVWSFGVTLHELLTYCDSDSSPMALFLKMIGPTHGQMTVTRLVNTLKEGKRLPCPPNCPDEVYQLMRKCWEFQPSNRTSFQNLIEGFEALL

For orientation: IC50 means the midpoint of a concentration-inhibition curve. Turning to `CC(O)c1ccc(Nc2nn(C3(CC#N)CCN(C(=O)OC(C)(C)C)CC3)cc2C(N)=O)cc1` (stereo not drawn) [Example 9-9, tert-butyl 4-(4-carbamoyl-3-(4-(1-hydroxyethyl)phenylamino)-1H-pyrazol-1-yl)-4-(cyanomethyl)piperidine-1-carboxylate], the 50% inhibitory concentration (IC50) in assay [1] (setting [3]) was 0.4 nM; in assay [2], 6 nM.
For `N#CCC1(n2cc(C(N)=O)c(Nc3ccccc3)n2)CN(C(=O)Nc2ccc(F)c(Cl)c2)C1` [Example 38-40, 1-{1-[(3-chloro-4-fluorophenyl)carbamoyl]-3-(cyanomethyl)azetidin-3-yl}-3-(phenylamino)-1H-pyrazole-4-carboxamide], the IC50 came to 18 nM in assay [1] (setting [3]) and 279 nM in assay [2].
On to `Cc1ccc(-c2cccc(Nc3nn(C4(CC#N)CCN(C(=O)OC(C)(C)C)CC4)cc3C(N)=O)c2)cc1` [Example 15-6, tert-butyl 4-{4-carbamoyl-3-[(4′-methylbiphenyl-3-yl)amino]-1H-pyrazol-1-yl}-4-(cyanomethyl)piperidine-1-carboxylate], for which the IC50 in assay [1] (setting [3]) came to 85 nM; in assay [2], 1480 nM.
As for `CN(c1ccccc1)C1CCC(CC#N)(n2cc(C(N)=O)c(Nc3ccnc(F)c3)n2)CC1` (stereo not drawn) [Example 40-15, Cis or trans 1-{1-(cyanomethyl)-4-[methyl(phenyl)amino]cyclohexyl}-3-[(2-fluoropyridin-4-yl)amino]-1H-pyrazole-4-carboxamide], the IC50 came out at 0.08 nM in assay [1] (setting [3]) and 2 nM in assay [2].
For `N#CCC1(n2cc(C(N)=O)c(Nc3ccnc(F)c3)n2)CCC(NCc2ccccc2C#N)CC1` (stereo not drawn) [Example 41-27, Cis or trans 1-{4-[(2-cyanobenzyl)amino]-1-(cyanomethyl)cyclohexyl}-3-[(2-fluoropyridin-4-yl)amino]-1H-pyrazole-4-carboxamide], in that order: 307 nM and more than 1500 nM.
On to `N#CCC1(n2cc(C(N)=O)c(Nc3ccccc3)n2)CN(C(=O)OCCN2CCCC2=O)C1` [Example 30-64, 2-(2-oxopyrrolidin-1-yl)ethyl 3-[4-carbamoyl-3-(phenylamino)-1H-pyrazol-1-yl]-3-(cyanomethyl)azetidine-1-carboxylate], for which the half-maximal inhibitory concentration (IC50) amounted to 188 nM in assay [1] (setting [3]) and 1480 nM in assay [2].
Consider `CC(C)(C)OC(=O)N1CCC(CC#N)(n2cc(C(N)=O)c(Nc3ccc(C#N)c(F)c3)n2)CC1` [Example 9-26, tert-butyl 4-{4-carbamoyl-3-[(4-cyano-3-fluorophenyl)amino]-1H-pyrazol-1-yl}-4-(cyanomethyl)piperidine-1-carboxylate], for which the values for the IC50 in assay [1] (setting [3]) and in assay [2] were 0.4 nM and 7 nM, respectively.
On to `N#CCC1(n2cc(C(N)=O)c(Nc3ccnc(F)c3)n2)CCC(N2CCc3ccccc32)CC1` (stereo not drawn) [Example 40-54, Cis or trans 1-[1-(cyanomethyl)-4-(2,3-dihydro-1H-indol-1-yl)cyclohexyl]-3-[(2-fluoropyridin-4-yl)amino]-1H-pyrazole-4-carboxamide], for which the IC50 was determined as 0.9 nM in assay [1] (setting [3]) and 24 nM in assay [2].
Take `CC(O)c1ccc(Nc2nn(C3(CC#N)CCN(C(=O)OC(C)(C)C)CC3)cc2C(N)=O)cn1` (stereo not drawn) [Example 9-7, tert-butyl 4-(4-carbamoyl-3-(6-(1-hydroxyethyl)pyridin-3-ylamino)-1H-pyrazol-1-yl)-4-(cyanomethyl)piperidine-1-carboxylate]: the IC50 was 0.5 nM in assay [1] (setting [3]) and 2 nM in assay [2].
For `N#CCC1(n2cc(C(N)=O)c(Nc3ccnc(F)c3)n2)CCN(Cc2cncc(F)c2)CC1` [Example 22-38, 1-{4-(cyanomethyl)-1-[(5-fluoropyridin-3-yl)methyl]piperidin-4-yl}-3-[(2-fluoropyridin-4-yl)amino]-1H-pyrazole-4-carboxamide], the figures for the half-inhibitory concentration (IC50) in assay [1] (setting [3]) and in assay [2] were 0.2 nM and 5 nM, respectively.
Regarding `COc1ccc(NC(=O)N2CC(CC#N)(n3cc(C(N)=O)c(Nc4ccccc4)n3)C2)c(C)c1` [Example 38-36, 1-{3-(cyanomethyl)-1-[(4-methoxy-2-methylphenyl)carbamoyl]azetidin-3-yl}-3-(phenylamino)-1H-pyrazole-4-carboxamide], the 50% inhibitory concentration (IC50) turned out to be 15 nM in assay [1] (setting [3]) and 233 nM in assay [2].
As for `N#CCC1(n2cc(C(N)=O)c(Nc3ccnc(F)c3)n2)CCC(Nc2cccc(F)c2)CC1` (stereo not drawn) [Example 40-55, Cis or trans 1-{1-(cyanomethyl)-4-[(3-fluorophenyl)amino]cyclohexyl}-3-[(2-fluoropyridin-4-yl)amino]-1H-pyrazole-4-carboxamide], the 50% inhibitory concentration (IC50) in assay [1] (setting [3]) came to 13 nM; in assay [2] it was 409 nM.
For `N#CCC1(n2cc(C(N)=O)c(Nc3ccc(F)cc3)n2)CCN(c2cccc(OCCO)n2)CC1` [Example 3-10, 1-{4-(cyanomethyl)-1-[6-(2-hydroxyethoxy)pyridin-2-yl]piperidin-4-yl}-3-[(4-fluorophenyl)amino]-1H-pyrazole-4-carboxamide], the results for the IC50 in assay [1] (setting [3]) and in assay [2] were 3 nM and 47 nM, respectively.
Regarding `COCC(C)OC(=O)N1CCC(CC#N)(n2cc(C(N)=O)c(Nc3ccc(F)cc3)n2)CC1` (stereo not drawn) [Example 30-23, 1-methoxypropan-2-yl 4-{4-carbamoyl-3-[(4-fluorophenyl)amino]-1H-pyrazol-1-yl}-4-(cyanomethyl)piperidine-1-carboxylate], the IC50 in assay [1] (setting [3]) came out at 2 nM; in assay [2], 40 nM.
Turning to `N#CCC1(n2cc(C(N)=O)c(Nc3ccccc3)n2)CCN(CC2CCCCC2)CC1` [Example 21-9, 1-[4-(cyanomethyl)-1-(cyclohexylmethyl)piperidin-4-yl]-3-(phenylamino)-1H-pyrazole-4-carboxamide], the figures for the IC50 in assay [1] (setting [3]) and in assay [2] were 15 nM and 319 nM, respectively.
With `COc1ccc2cc(CN3CCC(CC#N)(n4cc(C(N)=O)c(Nc5ccccc5)n4)CC3)ccc2c1` [Example 21-13, 1-{4-(cyanomethyl)-1-[(6-methoxynaphthalen-2-yl)methyl]piperidin-4-yl}-3-(phenylamino)-1H-pyrazole-4-carboxamide], the IC50 in assay [1] (setting [3]) was determined as 24 nM; in assay [2] it was 297 nM.
As to `N#CCC1(n2cc(C(N)=O)c(Nc3ccccc3)n2)CCN(C(=O)c2cccc(N3CCOCC3)c2)CC1` [Example 34-28, 1-(4-(cyanomethyl)-1-[(3-morpholin-4-ylphenyl)carbonyl]piperidin-4-yl}-3-(phenylamino)-1H-pyrazole-4-carboxamide], the results for the IC50 in assay [1] (setting [3]) and in assay [2] were 92 nM and 1050 nM, respectively.
For the compound `CC(C)(C)C(=O)N1CC(CC#N)(n2cc(C(N)=O)c(Nc3ccccc3)n2)C1` [Example 34-37, 1-[3-(cyanomethyl)-1-(2,2-dimethylpropanoyl)azetidin-3-yl]-3-(phenylamino)-1H-pyrazole-4-carboxamide], the half-inhibitory concentration (IC50) came out at 138 nM in assay [1] (setting [3]) and 570 nM in assay [2].
Regarding `N#CCC1(n2cc(C(N)=O)c(Nc3ccc(F)cc3)n2)CCN(c2cc(F)cc(F)c2)CC1` [Example 3-40, 1-[4-(cyanomethyl)-1-(3,5-difluorophenyl)piperidin-4-yl]-3-[(4-fluorophenyl)amino]-1H-pyrazole-4-carboxamide], the IC50 came out at 3 nM in assay [1] (setting [3]) and 67 nM in assay [2].
For `CS(=O)(=O)c1ccc(Nc2nn(C3(CC#N)CN(C(=O)Nc4cc(F)ccc4F)C3)cc2C(N)=O)cc1` [Example 38-42, 1-{3-(cyanomethyl)-1-[(2,5-difluorophenyl)carbamoyl]azetidin-3-yl}-3-{[4-(methylsulfonyl)phenyl]amino}-1H-pyrazole-4-carboxamide] the same measures were 19 nM and 237 nM.
For `N#CCC1(n2cc(C(N)=O)c(Nc3ccnc(F)c3)n2)CCC(Nc2ccc(Cl)cc2)CC1` (stereo not drawn) [Example 40-61, Cis or trans 1-{4-[(4-chlorophenyl)amino]-1-(cyanomethyl)cyclohexyl}-3-[(2-fluoropyridin-4-yl)amino]-1H-pyrazole-4-carboxamide], in that order: 0.06 nM and 3 nM.
For `N#CCC1(n2cc(C(N)=O)c(Nc3ccnc(F)c3)n2)CCC(Nc2cccc(Cl)c2)CC1` (stereo not drawn) [Example 40-62, Cis or trans 1-{4-[(3-chlorophenyl)amino]-1-(cyanomethyl)cyclohexyl}-3-[(2-fluoropyridin-4-yl)amino]-1H-pyrazole-4-carboxamide] the same measures were 38 nM and 832 nM.
On to `N#CCC1(n2cc(C(N)=O)c(Nc3ccc(F)cc3)n2)CCC(N2CCc3ccccc32)CC1` (stereo not drawn) [Example 40-49, Cis or trans 1-[1-(cyanomethyl)-4-(2,3-dihydro-1H-indol-1-yl)cyclohexyl]-3-[(4-fluorophenyl)amino]-1H-pyrazole-4-carboxamide], for which the IC50 was found to be 5 nM in assay [1] (setting [3]) and 137 nM in assay [2].
With `N#CCC1(n2cc(C(N)=O)c(Nc3ccnc(F)c3)n2)CCC(NCC(F)F)CC1` (stereo not drawn) [Example 40-106, Cis or trans 1-{1-(cyanomethyl)-4-[(2,2-difluoroethyl)amino]cyclohexyl}-3-[(2-fluoropyridin-4-yl)amino]-1H-pyrazole-4-carboxamide], the figures for the IC50 in assay [1] (JAK1 IC50) and in assay [2] were 4 nM and 31 nM, respectively.
With `N#CCC1(n2cc(C(N)=O)c(Nc3ccccc3)n2)CN(C(=O)OCCc2ccccn2)C1` [Example 30-67, 2-pyridin-2-ylethyl 3-[4-carbamoyl-3-(phenylamino)-1H-pyrazol-1-yl]-3-(cyanomethyl)azetidine-1-carboxylate], the IC50 came to 108 nM in assay [1] (setting [3]) and 849 nM in assay [2].
Regarding `CC(C)(C)OC(=O)N1CCC(CC#N)(n2cc(C(N)=O)c(Nc3ccnc(C#N)c3)n2)CC1` [Example 9-33, tert-butyl 4-{4-carbamoyl-3-[(2-cyanopyridin-4-yl)amino]-1H-pyrazol-1-yl}-4-(cyanomethyl)piperidine-1-carboxylate], the IC50 in assay [1] (setting [3]) was 0.2 nM; in assay [2], 6 nM.
Turning to `CCOc1ccccc1NC(=O)N1CC(CC#N)(n2cc(C(N)=O)c(Nc3ccccc3)n2)C1` [Example 38-30, 1-{3-(cyanomethyl)-1-[(2-ethoxyphenyl)carbamoyl]azetidin-3-yl}-3-(phenylamino)-1H-pyrazole-4-carboxamide], the IC50 in assay [1] (setting [3]) came out at 62 nM; in assay [2] it was 507 nM.
